Patent publication US12213973B2, “Bacterial nitric oxide synthase inhibitors” (Northwestern University, priority 2021, dated 2025)
Entries after “also recorded” stand apart in the source; their conditions may differ.

Legend:
human nNOS (hnNOS) = target: T1, human nNOS (hnNOS) (Homo sapiens, UniProt P29475); assay: Hemoglobin NO capture assay, hnNOS; format: biochemical; conditions: from IC50 by Cheng-Prusoff, 10 μM L-Arg
T1 construct: made in house; host or cells: Escherichia coli
Experimental: (§1) The NOS inhibitory activity of the compounds was measured by the hemoglobin (Hb) NO capture assay following a protocol described previously.^1-2 The production of NO was monitored by a rapid oxidation of oxyhemoglobin (oxyHb) to methemoglobin (metHb) by NO.^1 Purified recombinant NOSs, human nNOS (hnNOS), and human eNOS (heNOS),^3 are used in all activity assays. They were expressed in Escherichia coli and purified as previously reported. In brief, the assay was performed in 100 mM HEPES (4-(2-hydroxyethyl)-1-piperazine-ethanesulfonic acid) buffer with 10% glycerol (pH 7.4-7.5) at 37° C. in the presence of 10 μM L-Arg, 10 μM H4B, 100 μM NADPH, 0.83 mM CaCl2), 320 units/mL calmodulin, and 3 μM human oxyhemoglobin. A concentration of L-Arg of 10 μM was used as it is sufficient not to cause NOS uncoupling and is close to the Km values of all three NOS isoforms where competitive inhibitors can be detected effectively. The assay was performed in 96-well plates using a Biotek Gen5 microplate reader. The NOS enzymes and hemoglobin were dispensed automatically by the plate reader. NO production was kinetically monitored at 401 nm for 6 min. The inhibition constants (Ki) for all NOSs were calculated from the IC50 values of the dose-response curves using the Cheng-Prusoff equation,^4
(§2) [formula] where Km is the Michaelis constant. […] The calculated standard deviations from dose-response curves of the assays were less than 10% with all NOSs.

human eNOS (heNOS) = target: T2, human eNOS (heNOS) (Homo sapiens, UniProt P29474); assay: Hemoglobin NO capture assay, heNOS; format: biochemical; conditions: for Ki: from IC50 by Cheng-Prusoff, 10 μM L-Arg; for eNOS/nNOS selectivity: ratio of Ki heNOS to Ki hnNOS
T2 construct: made in house; host or cells: Escherichia coli
Experimental: as §1, §2

hiNOS = hiNOS (Homo sapiens, UniProt P35228); assay: Griess assay IC50, hiNOS; format: biochemical; conditions: IC50 value from Griess assay
bNOS WT (bsNOS) [1] = target: T3, bNOS WT (bsNOS) (Bacillus subtilis, UniProt O34453); assay: IC50 determination with bBidomain construct, bNOS WT; format: biochemical; design: YKuN (fusion partner); made in house; host or cells: E. coli BL21 (DE3)
Experimental: (§3) Enzyme activity for bsNOS and bsNOS I218V was measured using the bBidomain constructs, as described previously,^4,14 with some minor alterations. Reactions with bsNOS and bsNOS I218V were run for 8 min, whereas those with hiNOS and heNOS were run for 4 min, as this allowed for adequate signal before complete substrate depletion. hiNOS and heNOS reactions also had calmodulin added at 10× the protein concentration. Inhibitors were tested from 5 μM to 800 μM. IC50 values were calculated as previously described.^9
Target sequence in this assay (O34453 other isoform, or with tags, fused parts or gaps): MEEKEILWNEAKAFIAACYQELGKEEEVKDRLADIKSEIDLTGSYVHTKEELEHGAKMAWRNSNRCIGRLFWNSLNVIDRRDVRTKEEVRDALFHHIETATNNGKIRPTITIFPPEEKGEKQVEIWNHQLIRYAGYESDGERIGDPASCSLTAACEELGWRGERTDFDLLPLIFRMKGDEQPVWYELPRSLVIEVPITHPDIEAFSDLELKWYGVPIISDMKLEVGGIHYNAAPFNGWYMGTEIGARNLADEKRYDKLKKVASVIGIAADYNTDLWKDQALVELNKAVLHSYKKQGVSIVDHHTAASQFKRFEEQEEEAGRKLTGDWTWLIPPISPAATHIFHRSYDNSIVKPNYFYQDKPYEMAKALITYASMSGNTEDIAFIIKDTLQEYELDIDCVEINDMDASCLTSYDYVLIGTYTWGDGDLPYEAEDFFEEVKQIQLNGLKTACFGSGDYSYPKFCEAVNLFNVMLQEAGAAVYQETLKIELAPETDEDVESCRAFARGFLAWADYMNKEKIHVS

[2] = target: human inducible NOS (hiNOS) (Homo sapiens, UniProt P35228); assay: IC50 determination, hiNOS; format: biochemical; conditions: for isoform selectivity hiNOS/bNOS (in parentheses): ratio of IC50 hiNOS to IC50 bNOS WT
Experimental: as §3

[3] = target: human endothelial NOS (heNOS) (Homo sapiens, UniProt P29474); assay: IC50 determination, heNOS; format: biochemical; conditions: for isoform selectivity heNOS/bNOS (in parentheses): ratio of IC50 heNOS to IC50 bNOS WT
Experimental: as §3

bNOS (I218V) [4] = target: T4, bNOS (I218V) (Bacillus subtilis, UniProt O34453, I218V); assay: Imidazole displacement assay (spectral binding, Ks), bNOS I218V mutant; design: made in house; host or cells: E. coli BL21 (DE3); conditions: for decrease in inhibitor specificity between wild type (WT) and the I218V mutant (increase in KS): KS I218V versus KS WT
Experimental: (§4) The KS value for each ligand was then calculated from KS,app as previously described,^4,14 using the KD of imidazole to bsNOS, bsNOS I218V, hiNOS, and heNOS and normalized to L-Arg.
Target sequence in this assay (O34453 whole entry I218V): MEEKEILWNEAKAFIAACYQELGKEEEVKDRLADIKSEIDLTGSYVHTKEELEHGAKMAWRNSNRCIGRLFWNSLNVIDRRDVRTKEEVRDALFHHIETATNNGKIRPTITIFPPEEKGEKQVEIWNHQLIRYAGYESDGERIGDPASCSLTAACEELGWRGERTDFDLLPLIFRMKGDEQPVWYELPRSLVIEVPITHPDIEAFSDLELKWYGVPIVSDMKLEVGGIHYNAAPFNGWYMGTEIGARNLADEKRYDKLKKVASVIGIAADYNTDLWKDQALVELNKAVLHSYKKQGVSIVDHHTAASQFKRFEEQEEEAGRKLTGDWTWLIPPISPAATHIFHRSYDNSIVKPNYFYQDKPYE

bNOS WT (bsNOS) [5] = target: T3, bNOS WT (bsNOS); assay: Imidazole displacement assay (spectral binding, Ks), bNOS WT; design: made in house; host or cells: E. coli BL21 (DE3)
Experimental: as §4
Target sequence in this assay (O34453 whole entry, the tested form may be a part): as the sequence (O34453 whole entry I218V) above, with V218I counted along it

[6] = tested on: MRSA in infected macrophage cells; assay: Macrophage MRSA killing assay; format: cell-based; conditions: for MRSA killing activity in infected macrophage cells: FIG. 5; for MRSA killing activity compared with QJ13: FIG. 5B
Experimental: Bone marrow was isolated, red blood cells lysed with ACK buffer (Gibco), and plated on non-tissue culture treated dishes (Fisher) in DMEM media (Hyclone) supplemented with 2 mM L-glutamine (Corning), 100 U/mL pen-strep (Hyclone), 10% fetal bovine serum (OmegaScientific), and 10% cell conditioned media from CMG14-12 cells as a source of CSF. Macrophages were isolated after 6 days of differentiation and stored frozen in liquid nitrogen. One day prior to assay, macrophages were thawed and plated in flat-bottomed 96-well culture plates (VWR) at 50-70,000 cells per well in antibiotic-free DMEM media supplemented with 10% fetal bovine serum and L-glutamine.
Bacteria and inhibitors or vehicle control were added to each well. The plate was spun down for 5 min, 1500 rpm, 25° C. to bring bacteria in contact with the macrophages. The plate was incubated for 1 h at 37° C. with 5% CO2. The plate was spun down for 5 min, 1500 rpm, 25° C. The supernatant was pipetted off and discarded. Cells were lysed with 2% Triton-X 100 for 15 min. MTT in LB (100 μL of 1 mg/mL) was added to each well and plates were incubated for 2 h at 37° C. MTT was solubilized in DMSO, and plates were read at 540 nm. Killing was normalized to untreated bacteria. Empty wells with known bacteria quantities were used as a positive control.

bNOS (I218V) [7] = target: T4, bNOS (I218V); assay: IC50 determination with bBidomain construct, bNOS I218V; format: biochemical; design: YKuN (fusion partner); made in house; host or cells: E. coli BL21 (DE3)
Experimental: as §3
Target sequence in this assay (O34453 other isoform, or with tags, fused parts or gaps I218V): as the sequence (O34453 other isoform, or with tags, fused parts or gaps) above, with I218V counted along it

Compound | Ki (human nNOS (hnNOS)) [µM] | Ki (human eNOS (heNOS)) [µM] | eNOS/nNOS selectivity (human eNOS (heNOS)) | IC50 (hiNOS) [µM] | IC50 (bNOS WT (bsNOS) [1]) [µM] | IC50 [2] [µM] | isoform selectivity hiNOS/bNOS (in parentheses) [2] | IC50 [3] [µM] | isoform selectivity heNOS/bNOS (in parentheses) [3] | Kd (bNOS (I218V) [4]) [µM] | decrease in inhibitor specificity between wild type (WT) and the I218V mutant (increase in KS) (bNOS (I218V) [4]) [fold] | Kd (bNOS WT (bsNOS) [5]) [µM] | MRSA killing activity in infected macrophage cells [6] | MRSA killing activity compared with QJ13 [6] | MRSA killing ([6]; at ~50 μM concentration) | IC50 (bNOS (I218V) [7]) [µM]
Nc1cccc(CNCCOc2cccc(OCc3cccc(N)n3)c2)n1 [PW-III-25] | 3.3 | 340 | 102 |  |  |  |  |  |  |  |  |  |  |  |  | 
Nc1cccc(CCCCNCc2cccc(OCc3ccc4ccc(N)nc4c3)c2)n1 [PW-I-103] | 0.038 | 1.96 | 51 | 24 |  |  |  |  |  |  |  |  |  |  |  | 
Nc1ccc2ccc(COc3cccc(CNCc4ccccn4)c3)cc2n1 [PW-I-101] | 0.022 | 19.8 | 900 | 143 |  |  |  |  |  |  |  |  |  |  |  | 
Nc1cccc(CNCCOc2cccc(OCc3ccc4ccc(N)nc4c3)c2)n1 [Compound 9, 7-((3-(2-(((6-aminopyridin-2-yl)methyl)amino)ethoxy)phenoxy)methyl)quinolin-2-amine] |  |  |  |  | 26.5 | 350 | 13 | 493 | 19 | 24.6 | 11 | 2.25 | exhibited killing activity | superior MRSA killing activity | about 50% | 228
Nc1cccc(CCCCNCc2cccc(OCc3ccc4ccc(N)nc4c3)c2)n1 [Compound 8, 7-((3-(((4-(6-aminopyridin-2-yl)butyl)amino)methyl)phenoxy)methyl)quinolin-2-amine] |  |  |  |  | 6.1 | 24 | 4 | 126 | 21 | 6.3 |  | 6.3 |  |  |  | 9.2
Nc1ccc2ccc(COc3cccc(CNCc4ccccn4)c3)cc2n1 [Compound 4, 7-((3-(((pyridin-2-ylmethyl)amino)methyl)phenoxy)methyl)quinolin-2-amine] |  |  |  |  | 40 | 143 | 4 | 475 | 12 | 58.9 |  | 32 |  |  |  | 86
Nc1cccc(CCc2cccc(OCc3ccc4ccc(N)nc4c3)c2)n1 [Compound 3, 7-((3-(2-(6-aminopyridin-2-yl)ethyl)phenoxy)methyl)quinolin-2-amine] |  |  |  |  | 23.1 | 435 | 19 | > 500 |  | 23.5 |  | 29.9 |  |  |  | 31.2
Nc1ccc2ccc(COc3cccc(CNCCc4ccccn4)c3)cc2n1 [Compound 6, 7-((3-(((2-(pyridin-2-yl)ethyl)amino)methyl)phenoxy)methyl)quinolin-2-amine] |  |  |  |  | 21.6 | 396 | 18 |  |  | 31.9 |  | 22.6 |  |  |  | 63.8
Nc1cccc(CNCc2cccc(OCc3ccc4ccc(N)nc4c3)c2)n1 [Compound 5, 7-((3-((((6-aminopyridin-2-yl)methyl)amino)methyl)phenoxy)methyl)quinolin-2-amine] |  |  |  |  | 28 | 318 | 11 | 307 | 11 | 40 | 17 | 2.3 | exhibited killing activity; also recorded: showed efficacy only at higher concentrations | superior killing activity |  | 114
COC(=O)[C@@H](N)CCCNC(=N)N[N+](=O)[O-] [L-NAME, reference compound] |  |  |  |  |  |  |  |  |  |  |  |  | no effect |  |  | 
